Test results from EP1100821B1, “ANTI-INFLAMMATORY COMPOUNDS DERIVED FROM LIPOCORTIN-1” (priority 1998, dated 2006).
No end group written: not given here.

Key:
A549 cell line = conditions: in vitro A549 model; previous publications (Croxtall et al., 1993, 1998); cited from earlier work
PMN migration = type: in vivo; conditions: peptide s.c. 30 min prior to 1 mg zymosan into 6-day-old air-pouches; PMN counted 4 h after zymosan; n=15; P<0.01
Method: Male Swiss Albino mice (20-22 g body weight) were purchased from Interfauna (CFLP strain; Huntingdon, Cambridgeshire, UK) and maintained on a standard chow pellet diet with tap water ad libitum. Animals were used at least one week after arrival.
Air-pouches were formed on the back of the mice by subcutaneous (s.c.) injection of 2.5 ml of air on day 2 and day 5. Three days after the last air-injection (6-day-old air-pouches) 1 mg of zymosan (in 0.5 ml of sterile saline) was injected locally (Perretti et al., 1996). Zymosan was previously boiled for 30 min in phosphate buffered solution (PBS), extensively washed in the same medium and stored at -20°C prior to use.
Four hours after the local injection of zymosan, mice were killed by CO2 exposure and the air-pouches washed with 2 ml of PBS containing ethylenediaminetetracetic acid sodium salt (EDTA; 3 mM) and heparin (25 U/ml). […] The number of PMN was determined, using a Neubauer haematocytometer, after staining (1:10 dilution) with Turk's solution (crystal violet 0.01 % w/v in acetic acid 3% v/v).
Control mice were treated with sterile PBS (100 µl s.c.).

Row | Substance | inhibitory effect on A549 cell function (A549 cell line) | Approximate ED50s (inhibition of PMN migration) (PMN migration)
1 | LC11-12: lipocortin 1 N-terminal fragment, residues 1-12, from previous publications (MAMVSEFLKQAW; UniProt P04083 1-12, looked up, fragment) | inactive | 
2 | Ac-AMVSEFLKQAW [LC12-12, Ac-AMVSEFLKQAW] |  | ~110 nmol
3 | EQEYVQTV [LC118-25] | significant inhibitory activity | 
